In US10683269B2 (MISSION THERAPEUTICS LIMITED, priority 2016, dated 2020):

What follows are compounds tested against T1, USP7 (Homo sapiens, UniProt Q93009) (assay: USP7 biochemical IC50 assay (fluorescence polarisation, TAMRA labelled peptide linked to ubiquitin via an iso-peptide bond)). Settings: 30 min pre-incubation of enzyme and compound, read after 2 hr incubation at room temperature, read-out: IC50 range.
T1 construct: The USP7 construct was PCR amplified and cloned into a pFLAG-CMV-6a vector (Sigma-Aldrich) with an N-terminal FLAG tag; made in house; host or cells: HEK293T
T1 sequence (Q93009 whole entry): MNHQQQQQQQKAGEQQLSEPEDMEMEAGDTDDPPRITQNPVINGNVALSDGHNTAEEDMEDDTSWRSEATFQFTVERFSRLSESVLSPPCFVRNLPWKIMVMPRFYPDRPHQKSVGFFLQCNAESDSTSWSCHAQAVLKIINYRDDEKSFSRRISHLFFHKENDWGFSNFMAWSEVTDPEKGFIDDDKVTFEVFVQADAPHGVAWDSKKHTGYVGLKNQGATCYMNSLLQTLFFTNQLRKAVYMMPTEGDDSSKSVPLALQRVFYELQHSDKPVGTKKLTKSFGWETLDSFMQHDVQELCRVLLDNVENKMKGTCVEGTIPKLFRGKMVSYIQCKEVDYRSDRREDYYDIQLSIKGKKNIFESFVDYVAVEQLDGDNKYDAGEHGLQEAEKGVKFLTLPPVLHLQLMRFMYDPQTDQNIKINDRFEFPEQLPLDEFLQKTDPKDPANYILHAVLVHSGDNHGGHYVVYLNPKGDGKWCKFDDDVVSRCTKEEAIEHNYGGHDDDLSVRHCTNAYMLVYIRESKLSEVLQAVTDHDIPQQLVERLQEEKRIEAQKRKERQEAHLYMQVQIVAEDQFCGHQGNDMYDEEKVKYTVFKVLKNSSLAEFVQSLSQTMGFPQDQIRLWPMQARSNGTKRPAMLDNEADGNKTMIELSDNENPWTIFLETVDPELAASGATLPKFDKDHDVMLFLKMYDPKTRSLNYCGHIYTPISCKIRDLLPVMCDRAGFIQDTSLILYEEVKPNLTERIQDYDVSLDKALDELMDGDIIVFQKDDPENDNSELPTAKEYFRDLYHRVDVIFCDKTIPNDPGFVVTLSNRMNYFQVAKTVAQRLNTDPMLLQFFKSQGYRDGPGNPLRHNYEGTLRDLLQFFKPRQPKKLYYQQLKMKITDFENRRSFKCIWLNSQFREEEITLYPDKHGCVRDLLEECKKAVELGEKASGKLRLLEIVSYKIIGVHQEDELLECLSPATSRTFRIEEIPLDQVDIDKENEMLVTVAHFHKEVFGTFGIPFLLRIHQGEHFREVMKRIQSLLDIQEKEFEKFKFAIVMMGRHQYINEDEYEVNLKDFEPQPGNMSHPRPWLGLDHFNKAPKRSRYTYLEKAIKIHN
Procedure, shortened: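 Fluorescence polarisation at 540 nm excitation/590 nm emission, read immediately and after 2 hr at room temperature, following addition of 50 nM TAMRA-labelled iso-peptide ubiquitin substrate.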

Q: Which IC50 does the source give for `CCNc1cc2c(c(-c3ccc(C#N)cc3)c1)CN(C#N)C2` [Example 277, 4-(4-cyanophenyl)-6-(ethylamino)isoindoline-2-carbonitrile] here?
A: 1 to 10 µM

Q: Which IC50 does the source give for `N#Cc1ccc(-c2cc(N3CCS(=O)(=O)CC3)cc3c2CN(C#N)C3)cc1` [Example 278, 4-(4-cyanophenyl)-6-(1,1-dioxidothiomorpholino)isoindoline-2-carbonitrile] here?
A: 1 to 10 µM

Q: `CCN(CC)c1cc2c(c(-c3ccc(C#N)cc3)c1)CN(C#N)C2` [Example 279, 4-(4-Cyanophenyl)-6-(diethylamino)isoindoline-2-carbonitrile] was tested. Which IC50 did it give?
A: 1 to 10 µM

Q: Which IC50 does the source give for `N#Cc1ccc(-c2cc(NCC(O)CO)cc3c2CN(C#N)C3)cc1` (stereo not shown) [Example 280, 4-(4-Cyanophenyl)-6-((2,3-dihydroxypropyl)amino)isoindoline-2-carbonitrile] here?
A: 1 to 10 µM

Q: Which IC50 does the source give for `N#Cc1ccc(-c2cc(NCC3CCOCC3)cc3c2CN(C#N)C3)c(C(N)=O)c1` [Example 281, 5-Cyano-2-(2-cyano-6-(((tetrahydro-2H-pyran-4-yl)methyl)amino)isoindolin-4-yl)benzamide] here?
A: 1 to 10 µM

Q: With `N#CN1Cc2cc(NC[C@H](O)CO)cc(-c3ccc(F)cc3)c2C1` [Example 282, (S)-6((2,3-dihydroxypropyl)amino)-4-(4-fluorophenyl)isoindoline-2-carbonitrile] as the compound, how does the IC50 read?
A: 1 to 10 µM

Q: With `N#Cc1ccccc1-c1cc(NC[C@H](O)CO)cc2c1CN(C#N)C2` [Example 283, (S)-4-(2-cyanophenyl)-6-((2,3-dihydroxypropyl)amino)isoindoline-2-carbonitrile] as the compound, how does the IC50 read?
A: < 1 µM

Q: `COC(CO)CNc1cc2c(c(-c3ccc(C#N)cc3)c1)CN(C#N)C2` (stereo not shown) [Example 284, 4-(4-Cyanophenyl)-6-((3-hydroxy-2-methoxypropyl)amino)isoindoline-2-carbonitrile] was tested. Which IC50 did it give?
A: 1 to 10 µM

Q: For `CN(C)c1cc2c(c(-c3ccc(C#N)cc3C(N)=O)c1)CN(C#N)C2` [Example 285, 5-Cyano-2-(2-cyano-6-(dimethylamino)isoindolin-4-yl)benzamide], which IC50 is on record?
A: 1 to 10 µM

Q: How did the IC50 turn out when `CC(O)CNc1cc2c(c(-c3ccc(C#N)cc3)c1)CN(C#N)C2` (stereo not shown) [Example 286, 4-(4-Cyanophenyl)-6-((2-hydroxypropyl)amino)isoindoline-2-carbonitrile] was run?
A: 1 to 10 µM

Q: How did the IC50 turn out when `CC(C)(O)CNc1cc2c(c(-c3ccc(C#N)cc3)c1)CN(C#N)C2` [Example 287, 4-(4-cyanophenyl)-6-((2-hydroxy-2-methylpropyl)amino)iso-indoline-2-carbonitrile] was run?
A: 1 to 10 µM

Q: Which IC50 does the source give for `COC(C)(O)CNc1cc2c(c(-c3ccc(C#N)cc3)c1)CN(C#N)C2` (stereo not shown) [Example 288, 4-(4-cyanophenyl)-6-((2-hydroxy-2-methoxypropyl)amino)iso-indoline-2-carbonitrile] here?
A: 1 to 10 µM

Q: Which IC50 does the source give for `Cc1nc2c(c(-c3cccc(N4CCCC4=O)c3)n1)CN(C#N)C2` [Example 289, 2-methyl-4-(3-(2-oxopyrrolidin-1-yl)phenyl)-5,7-dihydro-6H-pyrrolo[3,4-d]pyrimidine-6-carbonitrile] here?
A: 1 to 10 µM

Q: How did the IC50 turn out when `Cn1nccc1CNc1nc2c(c(-c3cccc(N4CCCC4=O)c3)n1)CN(C#N)C2` [Example 290, 2-(((1-methyl-1H-pyrazol-5-yl)methyl)amino)-4-(3-(2-oxopyrrolidin-1-yl)phenyl)-5,7-dihydro-6H-pyrrolo[3,4-d]pyrimidine-6-carbonitrile] was run?
A: 1 to 10 µM

Q: With `N#CN1Cc2nc(NCCO)nc(-c3cccc(N4CCCC4=O)c3)c2C1` [Example 291, 2-((2-hydroxyethyl)amino)-4-(3-(2-oxopyrrolidin-1-yl)phenyl)-5,7-dihydro-6H-pyrrolo[3,4-d]pyrimidine-6-carbonitrile] as the compound, how does the IC50 read?
A: < 1 µM

Q: Which IC50 does the source give for `N#CN1Cc2nc(NCCO)nc(-c3cccc(N4CCOC4=O)c3)c2C1` [Example 292, 2-((2-hydroxyethyl)amino)-4-(3-(2-oxooxazolidin-3-yl)phenyl)-5,7-dihydro-6H-pyrrolo[3,4-d]pyrimidine-6-carbonitrile] here?
A: < 1 µM

Q: For `CNC(=O)c1cc2c(c(-c3cc(OC)cnc3C#N)c1)CN(C#N)C2` [Example 293, 2-cyano-7-(2-cyano-5-methoxypyridin-3-yl)-N-methylisoindoline-5-carboxamide], which IC50 is on record?
A: 1 to 10 µM

Q: With `N#Cc1cc(-c2cn[nH]c2)ccc1-c1cccc2c1CN(C#N)C2` [Example 294, 4-(2-cyano-4-(1H-pyrazol-4-yl)phenyl)isoindoline-2-carbonitrile] as the compound, how does the IC50 read?
A: 1 to 10 µM

Q: Which IC50 does the source give for `CN1CCCC(CN(C)c2nc3c(c(N4CCc5cccnc5C4)n2)CN(C#N)C3)C1` (stereo not shown) [Example 295, 4-(5,8-dihydro-1,7-naphthyridin-7(6H)-yl)-2-(methyl((1-methylpiperidin-3-yl)methyl)amino)-5,7-dihydro-6H-pyrrolo[3,4-d]pyrimidine-6-carbonitrile] here?
A: 1 to 10 µM

Q: Which IC50 does the source give for `N#Cc1cc2c(c(-c3ccc(F)cc3C(N)=O)c1)CN(C#N)C2` [Example 296, 2-(2,6-dicyanoisoindolin-4-yl)-5-fluorobenzamide] here?
A: 1 to 10 µM

Q: `N#Cc1cc(F)c(-c2cc(C#N)cc3c2CN(C#N)C3)c(C(N)=O)c1` [Example 297, 5-cyano-2-(2,6-dicyanoisoindolin-4-yl)-3-fluorobenzamide] was tested. Which IC50 did it give?
A: 1 to 10 µM

Q: Which IC50 does the source give for `N#Cc1ccc(N2CCOC2=O)cc1-c1cccc2c1CN(C#N)C2` [Example 298, 4-(2-cyano-5-(2-oxooxazolidin-3-yl)phenyl)isoindoline-2-carbonitrile] here?
A: 1 to 10 µM

Q: Which IC50 does the source give for `N#Cc1ccc(N2CCCC2=O)cc1-c1cccc2c1CN(C#N)C2` [Example 299, 4-(2-cyano-5-(2-oxopyrrolidin-1-yl)phenyl)isoindoline-2-carbonitrile] here?
A: 1 to 10 µM

Q: `N#CN1Cc2ncnc(-c3cccc(N4CCNC4=O)c3)c2C1` [Example 300, 4-(3-(2-oxoimidazolidin-1-yl)phenyl)-5,7-dihydro-6H-pyrrolo[3,4-c]pyrimidine-6-carbonitrile] was tested. Which IC50 did it give?
A: 1 to 10 µM

Q: For `N#Cc1cc(F)c(-c2cccc3c2CN(C#N)C3)c(C(N)=O)c1` [Example 301, 5-cyano-2-(2-cyanoisoindolin-4-yl)-3-fluorobenzamide], which IC50 is on record?
A: 1 to 10 µM
